Data: paper PMC12040169 (PLOS Biology, 2025)

Assay: in vitro
Conditions: human, hela cells, % viability

Going from `CCOC(=O)CNC(=O)c1cc2ccccc2c(=O)o1` [CBK058083] to `CCOC(=O)CNC(=O)c1cc(Br)c(OC)c(OC)c1` [CBK058454], the viability at 28.5 h, 10 µM rises from 97.9% to 116%.

First: O=C(NC1CCCC1)c1ccc(=O)[nH]c1 [CBK058093]
Second: CCN(CC)S(=O)(=O)c1cc(C(=O)NC2CCCCC2)ccc1Br [CBK058354]
The viability at 28.5 h, 10 µM of the first is higher: 104% for the first, 96.3% for the second.

Compared with `COc1ccc(-c2nc(NC3CCCCC3)c3ccccc3n2)cc1` [CBK058109], `COc1ccc(NC(=O)CC2SC(NC3CCCCC3)=NC2=O)c(OC)c1` (centres unmarked) [CBK059502] is lower in viability at 28.5 h, 10 µM: 95.6% for the first, 93.7% for the second.

Going from `CC1CCCCC1NC(=O)CSc1cccc2cccnc12` (centres unmarked) [CBK058143] to `O=C(CSc1ncccn1)Nc1cccc(Cl)c1` [CBK058217], the viability at 28.5 h, 10 µM falls from 96.9% to 87.6%.

Compared with `CCCCCC(=O)Nc1c(C)cc(Br)cc1C` [CBK058159], `CCCCCc1nnc(NC(=O)c2cccs2)s1` [CBK058382] is lower in viability at 28.5 h, 10 µM: 116% for the first, 103% for the second.

Going from `COc1ccc(C(=O)NCC2(c3ccccc3)CCCC2)c(OC)c1` [CBK058164] to `COc1ccc([C@@]23CC[C@@H](NC(=O)Nc4cccc(-c5cnco5)c4)C[C@@H]2N(C)CC3)cc1OC` [CBK059338T], the viability at 28.5 h, 10 µM falls from 113% to 92.3%.

Going from `Clc1ccc(-c2csc(NCc3ccco3)n2)cc1` [CBK058168] to `O=C(O)c1cc(S(=O)(=O)NCc2ccco2)ccc1Cl` [CBK058905], the viability at 28.5 h, 10 µM falls from 109% to 85.4%.

Going from `CC(C)=C(NC(=O)c1ccccc1)C(=O)Nc1cccc(C(=O)O)c1` [CBK058180] to `O=C(NC(Cc1cnc[nH]1)C(=O)O)c1ccccc1` (centres unmarked) [CBK059018], the viability at 28.5 h, 10 µM falls from 105% to 102%.

Going from `O=C(CSCC(=O)Nc1ccc2ccccc2c1)NCC1CCCO1` (centres unmarked) [CBK058183] to `Cc1ccccc1C(=O)Nc1ccc(F)c(F)c1` [CBK058249], the viability at 28.5 h, 10 µM rises from 89.6% to 96.1%.

First: Cc1ccc(C(C)C)c(OCC(=O)n2nc(C)cc2C)c1 [CBK058196]
Second: COc1cc(C)nc(OCCNS(=O)(=O)c2cc(C)ccc2C)n1 [CBK058870]
The viability at 28.5 h, 10 µM of the first is lower: 87.9% for the first, 91.9% for the second.

Compared with `O=c1cc(C(F)(F)F)c2ccc(OCc3ccc(Cl)cc3)cc2o1` [CBK058200], `COc1ccc(C(=O)N2CCN(Cc3ccc(SC)cc3)CC2)cc1` [CBK058613] is higher in viability at 28.5 h, 10 µM: 93% for the first, 112% for the second.

First: Cc1ccc(NC(=O)c2ccncc2)c(Br)c1 [CBK058282]
Second: O=C(Nc1ccc2c(c1)OCO2)c1cccc(I)c1 [CBK058308]
The viability at 28.5 h, 10 µM of the first is higher: 94.1% for the first, 85.7% for the second.

Compared with `COC(=O)c1ccccc1NC(=O)c1ccc(-n2cnnn2)cc1` [CBK058360], `CCn1cc(Cl)c(C(=O)Nc2ccsc2C(=O)OC)n1` [CBK058439] is lower in viability at 28.5 h, 10 µM: 91.1% for the first, 90.9% for the second.

Compared with `COc1ccc(/C=C/C(=O)O)cc1S(=O)(=O)N1CCCC1` [CBK058388], `O=C(COc1ccc(Cl)cc1Br)N1CCCCCC1` [CBK058661] is lower in viability at 28.5 h, 10 µM: 93.5% for the first, 82.8% for the second.

Going from `Cc1cc(C)nc(NC(=O)c2c(Cl)cccc2Cl)n1` [CBK058401] to `CCC(C)NC1=NC(=O)C(CC(=O)Nc2ccccc2Cl)S1` (centres unmarked) [CBK059133T], the viability at 28.5 h, 10 µM falls from 99.9% to 97.3%.

Compared with `Cc1ccc(S(=O)(=O)N2CC=CCC2)cc1` [CBK058443], `Cc1ccc(CSCC(=O)N2CCC(Cc3ccccc3)CC2)cc1` [CBK058739] is higher in viability at 28.5 h, 10 µM: 89% for the first, 95.6% for the second.

First: CC1CCN(C(=O)c2cccc(Cn3cc(Br)cn3)c2)CC1 [CBK058482]
Second: CC1CCCCN1C(=O)c1cccc(Cn2cc(Br)c([N+](=O)[O-])n2)c1 (centres unmarked) [CBK058788]
The viability at 28.5 h, 10 µM of the first is lower: 91.8% for the first, 104% for the second.

First: O=C(CSc1ncn[nH]1)Nc1ncccn1 [CBK058488]
Second: O=C(Nc1cccc(-c2nc3ncccc3o2)c1)c1cccnc1Cl [CBK058695]
The viability at 28.5 h, 10 µM of the first is higher: 105% for the first, 92% for the second.

Compared with `COCCOc1nc2ccccc2nc1C` [CBK058489], `COc1ccc(C(NC(=O)C2CCN(C(=O)OC(C)C)CC2)c2ccccc2C)cn1` (centres unmarked) [CBK059704] is lower in viability at 28.5 h, 10 µM: 103% for the first, 101% for the second.

First: O=C(Cc1ccc(Br)cc1)N1CCC(Cc2ccccc2)CC1 [CBK058493]
Second: Cc1ccccc1CSCC(=O)N1CCN(c2ccccc2)CC1 [CBK058577]
The viability at 28.5 h, 10 µM of the first is higher: 96.7% for the first, 89% for the second.

Compared with `O=C(CCN1CCN(CCO)CC1)Nc1cccc(Br)c1` [CBK058502], `Cc1ccc(OCC(O)CN2CCN(c3ccccn3)CC2)cc1C` (centres unmarked) [CBK058884] is lower in viability at 28.5 h, 10 µM: 102% for the first, 86.9% for the second.

Going from `O=C(Nc1ccc(F)cc1)Nc1cccnc1Cl` [CBK058509] to `O=C(NC(c1ccc(F)cc1)c1ccccn1)C1CCN(C(=O)c2ccno2)CC1` (centres unmarked) [CBK059705], the viability at 28.5 h, 10 µM rises from 90.4% to 99.9%.

Going from `O=C(c1cc2ncc(Br)cn2n1)N1CCOCC1` [CBK058513] to `O=C(NC(c1ccc(Cl)cc1)c1cnccn1)C1CCN(C(=O)N2CCOCC2)CC1` (centres unmarked) [CBK059635], the viability at 28.5 h, 10 µM falls from 97.9% to 96.7%.

Going from `CC(C)OC(=O)c1ccc(NC(=O)c2csc3c2CCCC3)cc1` [CBK058649] to `COc1ccccc1C(NC(=O)C1CCN(C(=O)OC(C)C)CC1)c1ccccn1` (centres unmarked) [CBK059649], the viability at 28.5 h, 10 µM rises from 106% to 111%.

Going from `CC(C)(C)c1csc(NC(=O)C2CCCCC2)n1` [CBK058720] to `COc1ccc(C(NC(=O)C2CCN(C(=O)C(C)(C)C)CC2)c2cnccn2)cc1` (centres unmarked) [CBK059791], the viability at 28.5 h, 10 µM falls from 98.1% to 97%.

Going from `CC(C)COC(=O)n1ccc(C(=O)N2CCCCC2)n1` [CBK058828] to `CC(C)COC(=O)N1CCC(C(=O)NC(c2ccc(Cl)cc2)c2cnccn2)CC1` (centres unmarked) [CBK059668], the viability at 28.5 h, 10 µM rises from 84.9% to 99.2%.

First: COC(=O)c1csc2nc(NCCCO)sc12 [CBK058832]
Second: CNC(=O)c1nc(NC)oc1C [CBK059214]
The viability at 28.5 h, 10 µM of the first is lower: 91.4% for the first, 94.4% for the second.

Going from `O=S(=O)(c1ccc(F)c(F)c1F)n1ccc2c(N3CCNCC3)nccc21` [CBK059066C] to `O=S(=O)(CC(F)(F)F)Nc1ccc(N2CCNCC2)c2ccccc12` [CBK059354C], the viability at 28.5 h, 10 µM falls from 106% to 90.6%.

Going from `CCC(C)NC1=NC(=O)C(CC(=O)N(C)c2ccccc2)S1` (centres unmarked) [CBK059110T] to `CN(C(=O)N1CCC(C(=O)NC(c2ccccc2)c2ccco2)CC1)c1ccccc1` (centres unmarked) [CBK059877], the viability at 28.5 h, 10 µM rises from 83.3% to 89%.

First: CC1(c2ccccc2)CC(C)(C)N(C(=O)C2CCCO2)c2ccccc21 (centres unmarked) [CBK059175]
Second: CN1CCN(CC(=O)N2c3ccccc3C(C)(c3ccc(Cl)cc3)CC2(C)C)CC1 (centres unmarked) [CBK059202]
The viability at 28.5 h, 10 µM of the first is higher: 97.5% for the first, 88.1% for the second.

Going from `FC(F)(F)Oc1ccc(-c2cncc(N3CCN(c4ccncc4)CC3)n2)cc1` [CBK059230C] to `O=C(NC(c1ccc(Cl)cc1)c1ccsc1)C1CCN(C(=O)Oc2ccc(Cl)cc2)CC1` (centres unmarked) [CBK060044], the viability at 28.5 h, 10 µM falls from 88.9% to 88.5%.

Going from `COc1ccc(C2CCCC(N(CCN(C)C)C(=O)Nc3ccc(F)c(F)c3)C2)cc1OC` (centres unmarked) [CBK059339C] to `CNC1CCC2(c3ccc(OC)c(OC)c3)CCN(C)C2C1` (centres unmarked) [CBK059586C], the viability at 28.5 h, 10 µM rises from 84.8% to 87.3%.

Compared with `O=C(Nc1ccccc1-n1cccc1)C1Cc2c([nH]c3ccccc23)C2(CCN(Cc3ccccc3)C2)N1` (centres unmarked) [CBK059395], `O=C(CN1CCc2c([nH]c3ccccc23)C12CCN(Cc1ccc(F)cc1)C2)Nc1ccccc1` (centres unmarked) [CBK059450] is higher in viability at 28.5 h, 10 µM: 95.9% for the first, 96% for the second.

Going from `O=C(Cc1ccccc1)N1CCc2c([nH]c3ccccc23)C12CCNC2` (centres unmarked) [CBK059461] to `CC(C)(C)C(=O)N1CCc2c([nH]c3ccccc23)C12CCNC2` (centres unmarked) [CBK059462], the viability at 28.5 h, 10 µM falls from 98.9% to 97.5%.

Compared with `Fc1ccc(CN2CCC3(C2)c2[nH]c4ccccc4c2CCN3Cc2ccc(F)cc2)cc1` (centres unmarked) [CBK059467], `COc1cccc(CN2CCC3(C2)c2[nH]c4ccccc4c2CCN3Cc2cccc(OC)c2)c1` (centres unmarked) [CBK059468] is higher in viability at 28.5 h, 10 µM: 85.8% for the first, 90.5% for the second.

First: COc1ccc2[nH]c3c(c2c1)CCNC31CCN(CCCN2C(=O)C3CCCCC3C2=O)C1 (centres unmarked) [CBK059518]
Second: Cc1ccc(C)c(NC(=O)N2CCC3(CCc4nccc(C)c4C3=O)CC2)c1 [CBK059554]
The viability at 28.5 h, 10 µM of the first is lower: 88.9% for the first, 91.6% for the second.

Going from `O=C(CN1CCOCC1)NC1(c2ccccc2)CCCCC1` [CBK059545C] to `O=C(NC(c1ccccc1)c1ccco1)C1CCN(C(=O)CCC2CCCC2)CC1` (centres unmarked) [CBK059887], the viability at 28.5 h, 10 µM rises from 85.6% to 90.4%.

Going from `Cc1ccnc2c1C(=O)C1(CC2)CCN(S(=O)(=O)c2c(C)noc2C)CC1` [CBK059557T] to `Cc1cc(C(=O)N2CCC(C(=O)NC(c3cnccn3)c3ccccc3C)CC2)no1` (centres unmarked) [CBK059810], the viability at 28.5 h, 10 µM rises from 80.4% to 93.6%.

First: Cc1cc(C(=O)N2CCC(C(=O)NC(c3ccccc3)c3ccc4ccccc4n3)CC2)no1 (centres unmarked) [CBK059641]
Second: Cc1ccc(C(=O)N2CCC(C(=O)NC(c3ccccc3)c3ccc4ccccc4n3)CC2)cc1 (centres unmarked) [CBK059663]
The viability at 28.5 h, 10 µM of the first is higher: 100% for the first, 87.9% for the second.

Compared with `Cc1ccccc1C(NC(=O)C1CCN(C(=O)CCC2CCCC2)CC1)c1ccccn1` (centres unmarked) [CBK059677], `COc1cccc(C(NC(=O)C2CCN(C(=O)c3ccccc3)CC2)c2ccccn2)c1` (centres unmarked) [CBK060036] is higher in viability at 28.5 h, 10 µM: 90.5% for the first, 103% for the second.

Compared with `COCCOC(=O)N1CCC(C(=O)NC(c2ccc(Cl)cc2)c2cccs2)CC1` (centres unmarked) [CBK059702], `CC(=O)N1CCC(C(=O)NC(c2ccc3c(c2)OCO3)c2cccs2)CC1` (centres unmarked) [CBK059881] is lower in viability at 28.5 h, 10 µM: 104% for the first, 101% for the second.

Compared with `O=C(NC(c1ccc(Cl)cc1)c1cccnc1)C1CCN(C(=O)c2ccco2)CC1` (centres unmarked) [CBK059708], `COc1ccc(C(NC(=O)C2CCN(C(=O)Oc3ccccc3)CC2)c2ccccc2C)cn1` (centres unmarked) [CBK059715] is lower in viability at 28.5 h, 10 µM: 92.4% for the first, 91.1% for the second.

First: CS(=O)(=O)N1CCC(C(=O)NC(c2ccccc2)c2cnccn2)CC1 (centres unmarked) [CBK059901]
Second: Cc1cccnc1C(NC(=O)C1CCN(S(=O)(=O)c2cccs2)CC1)c1cccs1 (centres unmarked) [CBK060147]
The viability at 28.5 h, 10 µM of the first is lower: 105% for the first, 111% for the second.

Going from `Cc1cccnc1C(c1ccc(F)cc1)N(C)C(=O)C1CCN(C(=O)OCc2ccccc2)CC1` (centres unmarked) [CBK060095] to `Cc1cccnc1C(NC(=O)C1CCN(C(=O)N2CCCC2)CC1)c1cccs1` (centres unmarked) [CBK060124], the viability at 28.5 h, 10 µM falls from 116% to 106%.

Same assay, conditions: human, hela cells, % viability, bulk resorufin, single well

In the case of `COc1ccc(CCNCc2cccc(Cl)c2)cc1` [CBK058787], the viability at 28.5 h, 10 µM is reported as 90%.
